Test system: MDA-MB-231 tumor
Test: Kinetics of CAR-T cell expansion and tumor uptake in MDA-MB-231 tumor bearing mice
Assay type: in vivo
Protocol: When the tumor sizes averaged at ˜350±60 mm^3 on day 2, up to […] of EC17 at 500 nmol/kg were given on days 2, 9, 16, 23, and 30. For ex-vivo analysis, 3 animals were taken before the next EC17 dose on days 9, 16, 23, and 30 for a total of 4 collections. For comparison, the same EC17 dose was given to 3 CAR-T mice that had ˜4.4× larger tumor sizes on day 2 (˜1555±79 mm^3). For each collection, fresh blood and tumor samples (if available) were analyzed for the presence of human CD3ε+EGFRt+ CAR-T cells by flow cytometry.
The dynamic interplay between EC17 and CAR-T cells in vivo was further analyzed using MDA-MB-231 tumor model, which was previously found to be among the highest FR expressing tumors at 103±15 pmol/mg membrane protein using a ^3H-FA-based radioligand binding assay. […] Seven days following a single EC17 dose (i.e., study day 9), human CD3ε+EGFRt+ CAR-T cells were detected in the blood of mice, with elevated numbers circulating in mice bearing larger tumors (FIGS. 62B-E). […]
For CAR-T cell analysis in the circulation, plasma was removed from a predetermined volume of whole blood collected into tubes containing ethylenediaminetetraacetic acid anticoagulant. […] A minimum of 20,000 propidium iodide negative live cell events were collected on the Gallios flow cytometer and analyzed with the Kaluza software, version 2.1 (Beckman Coulter, Brea, Calif.). […]

## NC1=NC2N=CC(CNc3ccc(C(=O)N[C@@H](CCC(=O)NCCNC(=S)Nc4ccc(-c5c6ccc(=O)cc-6oc6cc(O)ccc56)c(C(=O)O)c4)C(=O)O)cc3)=NC2C(=O)N1 (some centres unmarked) [EC17, FA-(γ)-ethylenediamine-FITC]
EC17 500 nmol/kg weekly, ~4.8 million E2-CAR-T cells
  onset of tumor response: started to respond after the second EC17 dose
After EC17 administration, especially after the third dose
  body weight loss: mild body weight loss
